Measurements taken from DBAASP.
≈ marks a conversion by molar mass, not a printed value. Where “and” joins values, the source holds several entries; their conditions need not be identical. Identical values can stand only once.

Legend:
Test in all cases: ≥ marks a high value that may be exact or a test limit, other limits are often not marked, values filed in µg/mL are converted to µM
[1] = test system: Enterobacter cloacae ATCC 23355
[2] = test system: Staphylococcus saprophyticus
[3] = test system: Bacillus subtilis CCT 2471
[4] = test system: Staphylococcus aureus ATCC 33591
[5] = test system: Acinetobacter baumannii
[6] = test system: Escherichia coli DH5alpha
[7] = test system: Acinetobacter baumannii ATCC 19606
[8] = test system: Enterococcus faecium ATCC 700221
[9] = test system: Escherichia coli 804
[10] = test system: Escherichia coli ATCC 8739
[11] = test system: Klebsiella aerogenes ATCC 13048
[12] = test system: Bacillus thuringiensis
[13] = test system: Zymomonas mobilis ATCC 10988
[14] = test system: Candida albicans ATCC 10231
[15] = test system: Escherichia coli MG1655
[16] = test system: Staphylococcus aureus MR
[17] = test system: Staphylococcus aureus 936
[18] = test system: Escherichia coli DL7
[19] = test system: Proteus mirabilis
[20] = test system: Staphylococcus epidermidis ATCC 12228
[21] = test system: Escherichia coli 780
[22] = test system: Pseudomonas aeruginosa
[23] = test system: Pseudomonas aeruginosa PAO1
[24] = test system: Bacillus subtilis DELTA
[25] = test system: Escherichia coli ML-35
[26] = test system: Klebsiella pneumoniae ATCC 700603
[27] = test system: Escherichia coli 850
[28] = test system: Pseudomonas aeruginosa 124
[29] = test system: Staphylococcus aureus ATCC 6538
[30] = test system: Pseudomonas aeruginosa 119
[31] = test system: Candida parapsilosis
[32] = test system: Candida albicans ATCC 200955
[33] = test system: Pseudomonas aeruginosa 86
[34] = test system: Escherichia coli CCT 1371

For CC[C@H](C)[C@H](NC(=O)[C@H](CCCN=C(N)N)NC(=O)[C@H](CCCCN)NC(=O)[C@H](CC(C)C)NC(=O)[C@H](CC(C)C)NC(=O)CN)C(=O)N[C@@H](CCCCN)C(=O)N[C@H](C(=O)N[C@@H](CC(C)C)C(=O)N[C@@H](CC(C)C)C(N)=O)[C@@H](C)O [GLLKRIKTLL], the MIC [1] was no less than 173 µM, the MIC [2] was 4.33 µM (≈ 5 µg/mL) and the MIC [3] was 17.3 µM (≈ 20 µg/mL). It also gave an MIC [4] of no less than 512 µM, an MIC [5] of 16 µM (≈ 18.5 µg/mL) and an MIC [6] of no less than 260 µM. The MIC [7] was 64 µM (≈ 73.8 µg/mL), the MIC [8] was no less than 133 µM and the MIC [9] was no less than 32 µM. It also gave an MIC [10] of no less than 35.5 µM, an MIC [11] of no less than 32 µM and an MIC [12] of no less than 173 µM. It also gave an MIC [13] of no less than 173 µM, an MIC [14] of 16.9 µM (≈ 19.5 µg/mL) and an MIC [15] of no less than 32 µM. It also gave an MIC [16] of no less than 45.3 µM, an MIC [17] of no less than 64 µM and an MIC [18] of 16 µM (≈ 18.5 µg/mL). It also gave an MIC [19] of no less than 173 µM, an MIC [20] of 8 µM (≈ 9.23 µg/mL) and an MIC [21] of 16 µM (≈ 18.5 µg/mL). For the same compound, the MIC [22] was 11.3 µM (≈ 13.1 µg/mL), the MIC [23] was 173 µM (≈ 200 µg/mL) and the MIC [24] was no less than 173 µM. The MIC [25] was 8 µM (≈ 9.23 µg/mL), the MIC [26] was 64 µM and 128 µM and the MIC [27] was no less than 32 µM. For the same compound, the MIC [28] was no less than 32 µM, the MIC [29] was 43.3 µM and 65 µM and the MIC [30] was 4 µM (≈ 4.61 µg/mL). For the same compound, the MIC [31] was no less than 43.3 µM, the MIC [32] was no less than 171 µM and the MIC [33] was 4 µM (≈ 4.61 µg/mL). The MIC [34] was no less than 86.6 µM.
